Assays:
Conditions in all cases: Compound concentration 1000.0 nM
[1] = target: Ribosomal protein S6 kinase alpha-2 (Homo sapiens) (UniProt Q15349)
[2] = test system: Receptor-type tyrosine-protein kinase FLT3 (Homo sapiens), P36888 [D835H]
[3] = target: Cyclin-dependent kinase-like 5 (Homo sapiens) (UniProt O76039)
[4] = target: Protein kinase C epsilon type (Homo sapiens) (UniProt Q02156)
[5] = target: Mitogen-activated protein kinase kinase kinase 14 (Homo sapiens) (UniProt Q99558)
[6] = target: SNF-related serine/threonine-protein kinase (Homo sapiens) (UniProt Q9NRH2)
[7] = target: Calcium/calmodulin-dependent protein kinase type 1 (Homo sapiens) (UniProt Q14012)
[8] = target: SRSF protein kinase 2 (Homo sapiens) (UniProt P78362)
[9] = target: Proto-oncogene tyrosine-protein kinase ROS (Homo sapiens) (UniProt P08922)
[10] = test system: Receptor-type tyrosine-protein kinase FLT3 (Homo sapiens), P36888 [D835V]
[11] = target: AP2-associated protein kinase 1 (Homo sapiens) (UniProt Q2M2I8)
[12] = target: Transient receptor potential cation channel subfamily M member 6 (Homo sapiens) (UniProt Q9BX84)
[13] = target: Serine/threonine-protein kinase PAK 1 (Homo sapiens) (UniProt Q13153)
[14] = test system: Phosphatidylinositol 4,5-bisphosphate 3-kinase catalytic subunit alpha isoform (Homo sapiens), P42336 [M1043I]
[15] = target: Mitogen-activated protein kinase kinase kinase kinase 1 (Homo sapiens) (UniProt Q92918)
[16] = target: Tyrosine-protein kinase CSK (Homo sapiens) (UniProt P41240)
[17] = target: Serine/threonine-protein kinase SIK3 (Homo sapiens) (UniProt Q9Y2K2)
[18] = target: Tyrosine-protein kinase JAK1 (Homo sapiens) (UniProt P23458)
[19] = target: Calcium/calmodulin-dependent protein kinase kinase 1 (Homo sapiens) (UniProt Q8N5S9)
[20] = target: Cytoplasmic tyrosine-protein kinase BMX (Homo sapiens) (UniProt P51813)
[21] = target: Serine/threonine-protein kinase DCLK2 (Homo sapiens) (UniProt Q8N568)
[22] = target: Mitogen-activated protein kinase kinase kinase kinase 5 (Homo sapiens) (UniProt Q9Y4K4)
[23] = target: Vascular endothelial growth factor receptor 3 (Homo sapiens) (UniProt P35916)
[24] = test system: Serine/threonine-protein kinase B-raf (Homo sapiens), P15056 [V600E]
[25] = target: Casein kinase I isoform epsilon (Homo sapiens) (UniProt P49674)
[26] = test system: Hepatocyte growth factor receptor (Homo sapiens), P08581 [M1250T]
[27] = target: Muscle, skeletal receptor tyrosine-protein kinase (Homo sapiens) (UniProt O15146)
[28] = target: Cyclin-dependent kinase 16 (Homo sapiens) (UniProt Q00536)
[29] = target: Serine/threonine-protein kinase 16 (Homo sapiens) (UniProt O75716)
[30] = target: Calcium/calmodulin-dependent protein kinase type 1G (Homo sapiens) (UniProt Q96NX5)
[31] = target: Tyrosine-protein kinase HCK (Homo sapiens) (UniProt P08631)
[32] = target: Serine/threonine-protein kinase N2 (Homo sapiens) (UniProt Q16513)
[33] = target: Cyclin-dependent kinase 13 (Homo sapiens) (UniProt Q14004)
[34] = target: Cyclin-dependent kinase 2 homolog (Plasmodium falciparum (isolate 3D7)) (UniProt P61075)
[35] = target: Tyrosine-protein kinase Tec (Homo sapiens) (UniProt P42680)
[36] = target: Calcium/calmodulin-dependent protein kinase type II subunit delta (Homo sapiens) (UniProt Q13557)
[37] = target: Serine/threonine-protein kinase PLK4 (Homo sapiens) (UniProt O00444)
[38] = target: Tyrosine-protein kinase ITK/TSK (Homo sapiens) (UniProt Q08881)
[39] = target: Calcium-dependent protein kinase 1 (Plasmodium falciparum) (UniProt P62344)
[40] = target: Fibroblast growth factor receptor 3 (Homo sapiens) (UniProt P22607)
[41] = target: Ephrin type-B receptor 6 (Homo sapiens) (UniProt O15197)
[42] = test system: Tyrosine-protein kinase ABL1 (Homo sapiens), P00519 [F317I]
[43] = test system: Tyrosine-protein kinase ABL1 (Homo sapiens), P00519 [T315I]
[44] = target: Mitogen-activated protein kinase kinase kinase 6 (Homo sapiens) (UniProt O95382)
[45] = target: Serine/threonine-protein kinase PLK1 (Homo sapiens) (UniProt P53350)

Measured: residual activity

Sequence of Serine/threonine-protein kinase B-raf (Homo sapiens), P15056 [V600E] (P15056 whole entry V600E, canonical isoform): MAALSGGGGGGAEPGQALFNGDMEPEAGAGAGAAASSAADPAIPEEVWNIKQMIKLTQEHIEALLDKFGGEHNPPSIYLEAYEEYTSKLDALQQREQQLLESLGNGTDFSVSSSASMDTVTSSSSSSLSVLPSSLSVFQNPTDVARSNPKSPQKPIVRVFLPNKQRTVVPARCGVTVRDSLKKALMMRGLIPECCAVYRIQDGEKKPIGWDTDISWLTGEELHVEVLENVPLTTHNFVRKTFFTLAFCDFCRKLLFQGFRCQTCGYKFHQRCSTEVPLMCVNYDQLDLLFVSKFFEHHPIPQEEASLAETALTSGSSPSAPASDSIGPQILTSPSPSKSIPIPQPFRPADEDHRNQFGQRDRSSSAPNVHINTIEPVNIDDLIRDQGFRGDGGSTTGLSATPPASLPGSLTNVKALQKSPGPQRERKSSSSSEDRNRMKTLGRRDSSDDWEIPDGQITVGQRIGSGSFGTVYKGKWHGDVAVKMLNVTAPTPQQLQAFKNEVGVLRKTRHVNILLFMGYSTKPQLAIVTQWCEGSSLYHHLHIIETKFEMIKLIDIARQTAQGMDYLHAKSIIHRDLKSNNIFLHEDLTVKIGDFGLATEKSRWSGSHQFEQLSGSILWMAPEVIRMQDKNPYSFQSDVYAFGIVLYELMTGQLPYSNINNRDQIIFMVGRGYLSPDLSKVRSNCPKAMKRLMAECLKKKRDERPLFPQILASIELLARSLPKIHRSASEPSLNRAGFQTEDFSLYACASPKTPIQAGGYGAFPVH
Sequence of Serine/threonine-protein kinase PLK1 (Homo sapiens) (P53350 whole entry): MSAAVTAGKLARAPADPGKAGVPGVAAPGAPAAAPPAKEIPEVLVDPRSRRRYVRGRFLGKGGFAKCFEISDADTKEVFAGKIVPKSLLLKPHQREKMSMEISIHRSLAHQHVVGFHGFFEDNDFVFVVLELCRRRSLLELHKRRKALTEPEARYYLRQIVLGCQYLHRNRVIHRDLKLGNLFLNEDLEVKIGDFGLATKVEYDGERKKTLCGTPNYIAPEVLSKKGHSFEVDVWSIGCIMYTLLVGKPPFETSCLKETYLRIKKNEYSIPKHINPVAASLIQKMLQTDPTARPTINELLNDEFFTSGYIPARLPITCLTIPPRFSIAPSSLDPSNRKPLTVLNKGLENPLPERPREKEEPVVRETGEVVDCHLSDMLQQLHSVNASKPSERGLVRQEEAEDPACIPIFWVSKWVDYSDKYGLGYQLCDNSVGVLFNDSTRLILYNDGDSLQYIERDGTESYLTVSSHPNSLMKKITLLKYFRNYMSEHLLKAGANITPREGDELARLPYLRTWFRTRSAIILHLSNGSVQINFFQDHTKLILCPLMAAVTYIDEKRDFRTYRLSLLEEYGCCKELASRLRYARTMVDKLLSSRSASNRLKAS
Sequence of Tyrosine-protein kinase Tec (Homo sapiens) (P42680 whole entry): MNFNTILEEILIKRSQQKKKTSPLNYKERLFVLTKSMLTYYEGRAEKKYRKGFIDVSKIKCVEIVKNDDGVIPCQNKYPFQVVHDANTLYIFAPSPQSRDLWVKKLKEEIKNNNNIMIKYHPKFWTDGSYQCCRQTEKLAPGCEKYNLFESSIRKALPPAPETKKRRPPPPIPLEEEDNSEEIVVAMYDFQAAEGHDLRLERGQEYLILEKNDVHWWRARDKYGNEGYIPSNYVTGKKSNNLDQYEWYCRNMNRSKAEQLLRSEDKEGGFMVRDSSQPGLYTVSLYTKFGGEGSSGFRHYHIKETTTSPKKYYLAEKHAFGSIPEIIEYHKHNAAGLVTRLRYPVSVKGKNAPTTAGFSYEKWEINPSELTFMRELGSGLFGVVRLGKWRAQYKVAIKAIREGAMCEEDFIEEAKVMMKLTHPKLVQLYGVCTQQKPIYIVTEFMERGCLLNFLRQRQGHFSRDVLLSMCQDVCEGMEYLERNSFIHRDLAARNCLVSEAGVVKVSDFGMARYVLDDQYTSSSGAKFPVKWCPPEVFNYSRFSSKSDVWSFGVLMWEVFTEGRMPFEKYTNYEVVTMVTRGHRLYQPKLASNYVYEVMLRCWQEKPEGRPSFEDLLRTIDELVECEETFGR
Sequence of Casein kinase I isoform epsilon (Homo sapiens) (P49674 whole entry, looked up, canonical isoform): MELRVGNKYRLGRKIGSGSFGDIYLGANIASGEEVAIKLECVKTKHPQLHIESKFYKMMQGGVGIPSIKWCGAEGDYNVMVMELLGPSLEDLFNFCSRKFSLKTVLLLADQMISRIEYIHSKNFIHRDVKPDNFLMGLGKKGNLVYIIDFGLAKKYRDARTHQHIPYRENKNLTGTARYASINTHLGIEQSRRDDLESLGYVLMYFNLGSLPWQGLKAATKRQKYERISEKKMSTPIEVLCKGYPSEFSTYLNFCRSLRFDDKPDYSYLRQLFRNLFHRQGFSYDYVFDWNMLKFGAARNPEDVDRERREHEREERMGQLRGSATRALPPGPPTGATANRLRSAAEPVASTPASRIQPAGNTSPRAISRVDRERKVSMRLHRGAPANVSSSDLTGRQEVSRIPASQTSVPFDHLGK
Sequence of Cyclin-dependent kinase 13 (Homo sapiens) (Q14004 whole entry, looked up): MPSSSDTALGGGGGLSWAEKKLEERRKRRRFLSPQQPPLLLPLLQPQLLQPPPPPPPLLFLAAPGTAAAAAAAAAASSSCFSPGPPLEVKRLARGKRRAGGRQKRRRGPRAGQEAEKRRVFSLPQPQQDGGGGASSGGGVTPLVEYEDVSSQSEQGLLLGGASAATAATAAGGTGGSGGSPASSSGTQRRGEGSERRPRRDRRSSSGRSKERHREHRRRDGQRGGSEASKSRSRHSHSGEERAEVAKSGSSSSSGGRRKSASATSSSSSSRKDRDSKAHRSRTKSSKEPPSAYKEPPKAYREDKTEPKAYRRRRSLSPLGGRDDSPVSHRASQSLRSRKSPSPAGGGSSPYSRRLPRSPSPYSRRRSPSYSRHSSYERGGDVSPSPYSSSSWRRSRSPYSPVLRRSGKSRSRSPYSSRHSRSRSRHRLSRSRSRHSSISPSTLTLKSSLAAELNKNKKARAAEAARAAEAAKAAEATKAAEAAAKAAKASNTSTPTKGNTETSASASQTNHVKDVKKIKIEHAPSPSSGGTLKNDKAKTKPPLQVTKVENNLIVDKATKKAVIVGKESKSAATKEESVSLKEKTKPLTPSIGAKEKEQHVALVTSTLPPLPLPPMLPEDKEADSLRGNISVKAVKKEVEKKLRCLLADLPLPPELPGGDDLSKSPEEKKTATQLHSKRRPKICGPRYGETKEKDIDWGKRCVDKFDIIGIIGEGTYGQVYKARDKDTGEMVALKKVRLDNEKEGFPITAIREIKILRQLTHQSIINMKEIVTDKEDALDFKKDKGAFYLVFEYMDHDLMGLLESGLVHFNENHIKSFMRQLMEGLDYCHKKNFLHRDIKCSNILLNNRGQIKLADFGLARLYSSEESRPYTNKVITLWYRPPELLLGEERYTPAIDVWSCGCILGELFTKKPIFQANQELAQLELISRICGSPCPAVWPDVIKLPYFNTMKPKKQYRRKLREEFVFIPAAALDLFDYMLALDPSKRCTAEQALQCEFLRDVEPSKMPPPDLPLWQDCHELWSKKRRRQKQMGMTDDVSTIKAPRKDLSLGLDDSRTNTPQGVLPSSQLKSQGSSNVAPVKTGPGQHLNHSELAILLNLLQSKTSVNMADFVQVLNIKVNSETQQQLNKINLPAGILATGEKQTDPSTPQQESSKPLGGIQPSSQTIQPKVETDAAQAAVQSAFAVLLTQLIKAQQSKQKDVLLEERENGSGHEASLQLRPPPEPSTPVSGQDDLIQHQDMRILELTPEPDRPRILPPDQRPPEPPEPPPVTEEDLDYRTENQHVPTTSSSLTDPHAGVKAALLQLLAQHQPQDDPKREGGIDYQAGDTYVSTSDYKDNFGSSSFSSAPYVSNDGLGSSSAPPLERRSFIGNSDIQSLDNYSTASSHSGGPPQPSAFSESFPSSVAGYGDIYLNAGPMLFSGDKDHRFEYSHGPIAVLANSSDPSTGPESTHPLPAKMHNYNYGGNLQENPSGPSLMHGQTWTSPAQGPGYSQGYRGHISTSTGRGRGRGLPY
Sequence of Serine/threonine-protein kinase N2 (Homo sapiens) (Q16513 whole entry, looked up): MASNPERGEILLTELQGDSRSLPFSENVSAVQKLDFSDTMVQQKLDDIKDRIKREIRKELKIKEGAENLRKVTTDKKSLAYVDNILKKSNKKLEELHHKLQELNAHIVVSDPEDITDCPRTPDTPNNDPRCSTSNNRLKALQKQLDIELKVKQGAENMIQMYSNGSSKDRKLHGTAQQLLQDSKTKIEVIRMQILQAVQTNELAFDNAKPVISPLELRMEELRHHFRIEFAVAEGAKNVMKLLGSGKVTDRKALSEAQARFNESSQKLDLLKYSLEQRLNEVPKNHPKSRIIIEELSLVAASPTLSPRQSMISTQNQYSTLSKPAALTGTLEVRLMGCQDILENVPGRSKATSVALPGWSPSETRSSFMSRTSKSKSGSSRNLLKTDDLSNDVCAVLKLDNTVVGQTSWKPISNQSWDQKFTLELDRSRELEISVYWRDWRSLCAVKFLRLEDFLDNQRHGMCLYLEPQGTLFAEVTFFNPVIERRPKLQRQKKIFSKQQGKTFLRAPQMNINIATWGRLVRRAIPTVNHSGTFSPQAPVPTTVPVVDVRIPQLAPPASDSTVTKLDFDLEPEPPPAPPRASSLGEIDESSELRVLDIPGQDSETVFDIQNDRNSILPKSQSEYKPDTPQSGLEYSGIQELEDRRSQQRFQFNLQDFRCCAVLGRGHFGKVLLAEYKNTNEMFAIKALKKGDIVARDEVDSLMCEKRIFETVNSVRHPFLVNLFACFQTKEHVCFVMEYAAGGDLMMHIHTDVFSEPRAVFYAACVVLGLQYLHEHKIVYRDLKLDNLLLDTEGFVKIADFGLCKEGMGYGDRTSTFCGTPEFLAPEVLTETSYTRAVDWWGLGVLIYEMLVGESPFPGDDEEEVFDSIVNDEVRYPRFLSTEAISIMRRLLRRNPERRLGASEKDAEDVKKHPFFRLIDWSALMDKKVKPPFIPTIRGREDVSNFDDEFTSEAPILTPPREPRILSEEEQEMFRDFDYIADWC

c1ccc(N2CCN(Cc3nc4ccccc4[nH]3)CC2)nc1 [ABT-724]
inactive: [1] 100% | [2] 100% | [3] 100% | [4] 100% | [5] 94% | [6] 100% | [7] 100% | [8] 100% | [9] 100% | [10] 88% | [11] 100% | [12] 100% | [13] 94% | [14] 87% | [15] 100% | [16] 100% | [17] 91% | [18] 76% | [19] 98% | [20] 100% | [21] 98% | [22] 100% | [23] 100% | [24] 100% | [25] 100% | [26] 100% | [27] 100% | [28] 100% | [29] 87% | [30] 100% | [31] 100% | [32] 100% | [33] 100% | [34] 100% | [35] 100% | [36] 91% | [37] 99% | [38] 100% | [39] 99% | [40] 96% | [41] 75% | [42] 100% | [43] 100% | [44] 98% | [45] 100%

CSc1cccnc1N1CCN(Cc2nc3ccccc3[nH]2)CC1 [A-769]
inactive: [1] 100% | [2] 65% | [3] 76% | [4] 77% | [5] 100% | [6] 100% | [7] 100% | [8] 59% | [9] 100% | [10] 84% | [11] 100% | [12] 100% | [13] 100% | [14] 94% | [15] 100% | [16] 100% | [17] 100% | [18] 80% | [19] 100% | [20] 100% | [21] 100% | [22] 100% | [23] 100% | [24] 85% | [25] 91% | [26] 98% | [27] 100% | [28] 81% | [29] 100% | [30] 100% | [31] 82% | [32] 62% | [33] 85% | [34] 92% | [35] 90% | [36] 100% | [37] 84% | [38] 97% | [39] 89% | [40] 100% | [41] 89% | [42] 100% | [43] 93% | [44] 92% | [45] 78%

— ChEMBL document CHEMBL4507260 (2021)
